The source of these data is PMC11783063, “Design, synthesis, and apoptotic antiproliferative action of new benzimidazole/1,2,3-triazole hybrids as EGFR inhibitors” (Frontiers in Chemistry, 2025).

As usually defined, the IC50 is the concentration that inhibits the measured activity by half.

The target of experiment [1] is EGFR (Homo sapiens, UniProt P00533). Details: method as in Ihmaid et al., 2021. Particulars: ref Ihmaid et al., 2021; read-out: EGFR inhibition IC50; cited from earlier work.
Experiment [2] deals with caspase-3. The experiment can be described thus: Caspase-3 activation assay in MCF-7 cells. The format is cell-based, human. Particulars: vs untreated control. The source says:
(§1) Cells experience apoptosis in reaction to specific signaling cues, resulting in significant modifications. […] They decompose vital cellular components, including nuclear proteins, such as DNA repair enzymes and structural proteins within the cytoskeleton, essential for optimal cellular function.
(§2) Supplementary Appendix A provides more details.
Allow all reagents to reach room temperature before use. Gently mix all liquid reagents prior to use. Determine the number of 8-well strips needed for the assay. Insert these in the frame(s) for current use. Add 100 μl of the Standard Diluent Buffer to the zero standard wells. Well(s) reserved for chromogen blank should be left empty. Add 100 μl of standards and controls or diluted samples to the appropriate microtiter wells. The sample dilution chosen should be optimized for each experimental system. Tap gently on the side of plate to mix. Cover wells with plate cover and incubate for 2 hours at room temperature. Thoroughly aspirate or decant solution from wells and discard the liquid, Wash wells 4 times. […] Tap gently on the side of the plate to mix. Cover plate with plate cover and incubate for 1 hour at room temperature. Thoroughly aspirate or decant solution from wells and discard the liquid, Wash wells 4 times. Add 100 μl Anti-Rabbit IgG HRP Working Solution to each well except the chromogen blank(s). Prepare the working dilution as described in Preparing IgG HRP. Cover wells with the plate cover and incubate for 30 minutes at room temperature. Thoroughly aspirate or decant solution from wells and discard the liquid. Wash wells 4 times. Add 100 μl of Stabilized Chromogen to each well. The liquid in the wells will begin to turn blue. Incubate for 30 minutes at room temperature and in the dark. The incubation time for chromogen substrate is often determined by the microtiter plate reader used. […] The O.D. values should be monitored, and the substrate reaction stopped before the O.D. of the positive wells exceeds the limits of the instrument. The O.D. values at 450 nm can only be read after the Stop Solution has been added to each well. […] Add 100 μl of Stop Solution to each well. Tap side of plate gently to mix. The solution in the wells should change from blue to yellow. Read the absorbance of each well at 450 nm having blanked the plate reader against a chromogen blank composed of 100 μl each of Stabilized Chromogen and Stop Solution. Read the plate within 2 hours after adding the Stop Solution. Use a curve fitting software to generate the standard curve. […] Read the concentrations for unknown samples and controls from the standard curve. Multiply value(s) obtained for sample(s) by the appropriate dilution factor to correct for the dilution in step 3.

The subject of experiment [3] is caspase-8. In words: Caspase-8 activation assay in MCF-7 cells. The class given is cell-based, human. As to the method: as §1, §2
The absorbance of each microwell was read on a spectrophotometer at 450 nm. A standard curve is prepared from 7human Caspase-8 standard dilutions and human Caspase-8 concentration determined.

Experiment [4] deals with Bax. The experiment can be described thus: Bax activation assay in MCF-7 cells. The format is cell-based, human. As for the experimental part: (§3) The current study supplied compounds 6i and 10e to breast (MCF-7) cancer cell lines at their respective IC50 values. This led to a notable elevation of pro-apoptotic Bax expression, with a fold increase of 34 for compound 6i and 36 for compound 10e.
(§4) Compounds 6i and 10e were assessed for their ability to activate caspase-3, caspase-8, and Bax, as well as to downregulate the anti-apoptotic protein Bcl2 in the MCF-7 breast cancer cell line ([Abdelbaset et al., 2019]). Supplementary Appendix A provides more details.
Bring all reagents, except the human Bax-α Standard, to room temperature for at least 30 minutes prior to opening. The human Bax-α Standard solution should not be left at room temperature for more than 10 minutes. All standards, controls and samples should be run in duplicate. Refer to the Assay Layout Sheet to determine the number of wells to be used and put any remaining wells with the desiccant back into the pouch and seal the ziploc. Store unused wells at 4 °C. Pipet 100 μL of Assay Buffer into the S0 (0 pg/mL standard) wells. Pipet 100 μL of Standards #1 through #6 into the appropriate wells. Pipet 100 μL of the Samples into the appropriate wells. Tap the plate gently to mix the contents. Seal the plate and incubate at room temperature on a plate shaker for 1 hour at ~500 rpm. Empty the contents of the wells and wash by adding 400 μL of wash solution to every well. Repeat the wash 4 more times for a total of 5 washes. After the final wash, empty or aspirate the wells and firmly tap the plate on a lint free paper towel to remove any remaining wash buffer. Pipet 100 μL of yellow Antibody into each well, except the Blank. Seal the plate and incubate at room temperature on a plate shaker for 1 hour at ~500 rpm. Empty the contents of the wells and wash by adding 400 μL of wash solution to every well. Repeat the wash 4 more times for a total of 5 washes. After the final wash, empty or aspirate the wells and firmly tap the plate on a lint free paper towel to remove any remaining wash buffer. Add 100 μL of blue Conjugate to each well, except the Blank. Seal the plate and incubate at room temperature on a plate shaker for 30 minutes at ~500 rpm. Empty the contents of the wells and wash by adding 400 μL of wash solution to every well. Repeat the wash 4 more times for a total of 5 washes. After the final wash, empty or aspirate the wells and firmly tap the plate on a lint free paper towel to remove any remaining wash buffer. Pipet 100 μL of Substrate Solution into each well. Incubate for 30 minutes at room temperature on a plate shaker at ~500 rpm. Pipet 100 μL Stop Solution to each well. Blank the plate reader against the Blank wells, read the optical density at 450 nm. Calculate the average net Optical Density (OD) bound for each standard and sample by subtracting the average Blank OD from the average OD for each standard and sample. Using linear graph paper, plot the Average Net OD for each standard versus Bax concentration in each standard. Approximate a straight line through the points. The concentration of Bax in the unknowns can be determined by interpolation.

Experiment [5] deals with Bcl-2. In words: Bcl-2 inhibition assay in MCF-7 cells. The format is cell-based, human. As to the method:
as §3, §4
Mix all the reagents thoroughly without foaming before use. Wash the microwells twice with approximately 300 μL Wash Buffer per well with thorough aspiration of microwell contents between washes. Take caution not to scratch the surface of the microwells. After the last wash, empty the wells and tap microwell strips on an absorbent pad or paper towel to remove excess Wash Buffer. Use the microwell strips immediately after washing or place upside down on a wet absorbent paper for not longer than 15 minutes. […] Add 100 μL of Sample Diluent in duplicate to all standard wells and to the blank wells. Prepare standard (1:2 dilution) in duplicate ranging from 32 ng/mL to 0.5 ng/mL. Add 100 μL of Sample Diluent, in duplicate, to the blank wells. Add 80 μL of Sample Diluent, in duplicate, to the sample wells. Add 20 μL of each Sample, in duplicate, to the designated wells. Add 50 μL of diluted biotin-conjugate to all wells, including the blank wells. Cover with a plate cover and incubate at room temperature, on a microplate shaker at 100 rpm if available, for 2 hours. Remove plate cover and empty the wells. Wash microwell strips 3 times as described in step 2. Add 100 μL of diluted Streptavidin-HRP to all wells, including the blank wells. Cover with a plate cover and incubate at room temperature, on a microplate shaker at 100 rpm if available, for 1 hour. Remove the plate cover and empty the wells. Wash microwell strips 3 times as described in step 2. Proceed to the next step. Pipette 100 μl of mixed TMB Substrate Solution to all wells, including the blanks. Incubate the microwell strips at room temperature (18° to 25°C) for about 15 minutes, if available on a rotator set at 100 rpm. Avoid direct exposure to intense light. The point, at which the substrate reaction is stopped, is often determined by the ELISA reader. Many ELISA readers record absorbance only up to 2.0 O.D. Therefore, the color development within individual microwells must be watched by the person running the assay and the substrate reaction stopped before positive wells are no longer properly detectable. Stop the enzyme reaction by quickly pipetting 100 μL of Stop Solution into each well, including the blank wells. It is important that the Stop Solution is spread quickly and uniformly throughout the microwells to completely inactivate the enzyme. Results must be read immediately after the Stop Solution is added or within one hour if the microwell strips are stored at 2 - 8°C in the dark. Read the absorbance of each microwell on a spectrophotometer using 450 nm as the primary wavelength.

For experiment [6], the system named is leukemia subpanel of 60 human carcinoma cell lines. Details: method as in Youssif et al., 2024. Particulars: NCI five-dose, ref Youssif et al., 2024; cited from earlier work.

EGFR, sequence (P00533 669-1210): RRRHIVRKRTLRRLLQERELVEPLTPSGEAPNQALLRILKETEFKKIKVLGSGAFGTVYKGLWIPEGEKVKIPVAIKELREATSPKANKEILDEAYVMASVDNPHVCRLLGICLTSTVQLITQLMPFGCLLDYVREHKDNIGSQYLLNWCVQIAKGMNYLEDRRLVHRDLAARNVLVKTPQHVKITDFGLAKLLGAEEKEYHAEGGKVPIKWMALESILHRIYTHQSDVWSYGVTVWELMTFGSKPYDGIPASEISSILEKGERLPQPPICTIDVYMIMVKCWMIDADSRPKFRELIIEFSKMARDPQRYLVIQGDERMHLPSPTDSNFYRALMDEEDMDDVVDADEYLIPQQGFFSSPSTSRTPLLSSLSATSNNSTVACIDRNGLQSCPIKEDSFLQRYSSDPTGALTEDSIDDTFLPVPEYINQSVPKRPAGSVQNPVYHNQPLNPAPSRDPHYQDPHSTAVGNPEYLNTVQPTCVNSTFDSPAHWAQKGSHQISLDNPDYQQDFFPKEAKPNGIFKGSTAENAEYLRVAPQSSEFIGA

Turning to `Cc1ccc(NC(=O)Cn2cc(CN3C(=O)c4cc(Cl)c(Cl)cc4C3=O)nn2)cc1F` [III], the IC50 in experiment [1] is 79 nM.

Turning to `CN[C@@H]1C[C@H]2O[C@@](C)([C@@H]1OC)n1c3ccccc3c3c4c(c5c6ccccc6n2c5c31)C(=O)NC4` [Staurosporine, reference compound], in experiment [2], the “Caspase-3 Fold change” value is 7. In experiment [3] (compound at its IC50 concentration), the “Caspase-8 Conc” value came out at 1.50 ± 0.10 ng/mL. For the same compound, the “Caspase-8 Fold change” value in experiment [3] (vs untreated control) is on record as 17. Further, in experiment [4] (compound at its IC50), the “Bax Conc” value is 288 ± 2 pg/mL. In addition, the “Bax Fold change” value in experiment [4] (vs untreated control) stood at 32. For the same compound, the “Bcl-2 Conc” value in experiment [5] (compound at its IC50) turned out to be 1.20 ng/mL. In addition, the “Bcl-2 Fold reduction” value in experiment [5] (vs untreated control) is reported as 4.

For `O=C(N/N=C/c1ccc([N+](=O)[O-])cc1)c1ccc2[nH]c(-c3ccc(Cl)cc3)nc2c1` [I], the “Selectivity ratio towards the leukemia subpanel at the GI50 level” value in experiment [6] is given as 5.96.
